Laboratory results as given in patent US20210396738A1, “3D HUMAN CANCER MODEL-BASED COMBINATORIAL DRUG DEVELOPMENT METHOD” (PreComb Therapeutics AG, priority 2018, published 2021).
Entries after “also recorded” stand apart in the source; their conditions may differ. Like-named read-outs stand apart in the source and are kept apart here.

Experiments:
[1] = test system: NSCLC microtumors (A549 NSCLC cells with human lung fibroblasts Wi38); experiment: Non-small cell lung cancer (NSCLC) microtumor size/growth assay; format: cell-based; conditions: for efficacy: impact on tumor growth: Vinorelbin high concentration vs low and high concentrated Docetaxel, dosed 2× for 8h with an 8h gap (FIG. 13B, D); for Response: 14 days window; for effect on NSCLC microtumor growth: dosed 2× for 8h with 48h gap (FIG. 6, FIG. 11)
Method: The NSCLC model was produced by mixing A549 NSCLC cells (ATCC® CCL-18S™) with human lung fibroblasts (Wi38, ATCC® CCL-7S™) in a non-adhesive 96-well plate (GravityTRAP™). Drugs were dosed 2× for 8h with 48h gap.
Single and drug combinations were dosed 2× for 8h with a gap of 48h and growth monitored over time.
(§1) FIG. 13 exemplifies tox testing of single drugs using connective/stromal microtissues (Wi38) and efficacy testing on non-small cell tumor microtissues (A549; Wi38). Vinorelbin and Docetaxel, both disrupting microtubule, were dosed 2× for 8h with an 8h gap.

[2] = test system: connective/stromal microtissues (Wi38); experiment: Tox testing on connective/stromal microtissues; format: cell-based, human; conditions: dosed 2× for 8h with an 8h gap (FIG. 13A, C)
Method: as §1

[3] = test system: pancreatic microtumors from pancreatic cancer cell line Panc-1 in co-culture with mouse fibroblast cell line NIH3T3; experiment: Pancreatic microtumor (3D microtissue) size/growth assay; conditions: for Response: 14 days window; for ΔT14/ΔC14: day 14; for effect on pancreatic microtumor growth: dosed for 8h with a 48h gap (FIG. 5)
Method: Both cells were expanded in cell culture flasks using Dulbecco's modification of Eagle medium (DMEM) supplemented with 10% fetal calf serum. After reaching confluency the were removed from the cell culture flask enzymatic digestion (Trypsin). Cell numbers of both cell types were assessed using a Neubauer chamber, and the respective cell number mixed to produce the co-culture microtumors. Seventy ul of the cell mixture was inoculated in each well of a non-adhesive 96-well plates (GravityTRAP™) using Dulbecco's modification of Eagle medium (DMEM) supplemented with 10% horse serum. Pancreatic microtumors were matured in a mammalian cell culture incubator at 37° C. with 5% CO2. […] After 48 hours the drug was removed by changing the culture medium with drug-free medium. The size of the pancreatic microtumors was monitored prior dosing and continuously after dosing using bright field microscopy. Growth is presented relative to the size of the pancreatic tumor microtissue prior compound treatment t0 (adapted from the RECIST criteria).
All drugs used were dissolved according to the manufactures protocol.

[4] = reference cmax used for potency; cited from earlier work
[5] = test system: microtumors from NSCLC cells directly derived from patients (NSCLC resection); experiment: Patient-derived NSCLC microtumor growth assay; format: cell-based, human; conditions: dosed 2× for 8h with a 48h gap (FIG. 12)
Method: A NSCLC resection was dissociated, and the cell Suspension used to produce microtumors in a multi-well format (FIG. 12A). Drugs were dosed 2× for 8h with a 48h gap.

**Q.** Which “efficacy: impact on tumor growth” value [1] does the source give for `CCC1=C[C@@H]2CN(C1)Cc1c([nH]c3ccccc13)[C@@](C(=O)OC)(c1cc3c(cc1OC)N(C)[C@H]1[C@@](O)(C(=O)OC)[C@H](OC(C)=O)[C@]4(CC)C=CCN5CC[C@]31[C@@H]54)C2` [Vinorelbin] here?
**A.** less impact on tumor growth

**Q.** And the “cytotoxicity on stromal microtissues compared to untreated control” value ([2]; high dose 0.68 ug/ml)?
**A.** elevated cytotoxicity

**Q.** Which Response ([3]; Irinotecan 0.675 ug/ml) does the source give for `CCc1c2c(nc3ccc(OC(=O)N4CCC(N5CCCCC5)CC4)cc13)-c1cc3c(c(=O)n1C2)COC(=O)[C@]3(O)CC` [Irinotecan] here?
**A.** PR (≥20%-100% increase in microtumor size)

**Q.** What about the ΔT14/ΔC14 ([3]; Irinotecan 0.675 ug/ml) of the same compound?
**A.** 1.04

**Q.** What about the “Time to MR (TMR)” value ([3]; Irinotecan 6.75 ug/ml) of the same compound?
**A.** 7 days

**Q.** And the “Time until relapse (TR)” value ([3]; Irinotecan 6.75 ug/ml)?
**A.** 7 days

**Q.** What about the Response ([3]; Irinotecan 6.75 ug/ml) of the same compound?
**A.** SR (+/−20% increase/decrease in size)

**Q.** And the ΔT14/ΔC14 ([3]; Irinotecan 6.75 ug/ml)?
**A.** 0.06

**Q.** What about the “Time to MR (TMR)” value ([3]; Irinotecan 67.5 ug/ml) of the same compound?
**A.** 14 days

**Q.** What about the Response ([3]; Irinotecan 67.5 ug/ml) of the same compound?
**A.** RE (≥20% decrease in microtumor size)

**Q.** And the ΔT14/ΔC14 ([3]; Irinotecan 67.5 ug/ml)?
**A.** −0.36

**Q.** And the “dose to growth correlation” value ([3]; indicated concentrations, drug removed after 48 hours, growth relative to size at t0 (FIG. 4))?
**A.** clear correlation of dose to growth

**Q.** What about the median cmax [4] of the same compound?
**A.** (median cmax = 5 ug/ml)

**Q.** What about the ΔT14/ΔC14 [1] of the same compound?
**A.** −0.32

**Q.** What about the “Time to MR (TMR)” value ([1]; Irinotecan 6.75 ug/ml) of the same compound?
**A.** 4 days

**Q.** What about the “Time until relapse (TR)” value ([1]; Irinotecan 6.75 ug/ml) of the same compound?
**A.** 5 days

**Q.** What about the ΔT14/ΔC14 ([1]; Irinotecan 6.75 ug/ml, day 14) of the same compound?
**A.** −0.60

**Q.** What about the “Time to MR (TMR)” value ([1]; Irinotecan 27 ug/ml) of the same compound?
**A.** 14 days

**Q.** What about the Response ([1]; Irinotecan 27 ug/ml) of the same compound?
**A.** RE (≥20% decrease in microtumor size)

**Q.** What about the ΔT14/ΔC14 ([1]; Irinotecan 27 ug/ml, day 14) of the same compound?
**A.** −3.09

**Q.** With `CC(=O)O[C@@]12CO[C@@H]1C[C@H](O)[C@@]1(C)C(=O)[C@H](O)C3=C(C)[C@@H](OC(=O)[C@H](O)[C@@H](NC(=O)OC(C)(C)C)c4ccccc4)C[C@@](O)([C@@H](OC(=O)c4ccccc4)[C@H]21)C3(C)C` [Docetaxel] as the compound, how does the “effect on pancreatic microtumor growth” value [3] read?
**A.** much slower

**Q.** And the sustainability of response ([3]; dosed for 8h with a 48h gap, compared with Gemcitabine (FIG. 5A))?
**A.** more sustainable

**Q.** And the “efficacy: impact on tumor growth” value [1]?
**A.** higher efficacy

**Q.** And the “cytotoxicity on stromal microtissues compared to untreated control” value ([2]; 4.05 ug/ml)?
**A.** less toxicity

**Q.** Which results are given for `O=C1CCC(N2C(=O)c3ccccc3C2=O)C(=O)N1` (stereo not drawn) [Thalidomide]?
**A.** impact on tumor growth, single doses [5]: hardly an impact on tumor growth; effect on NSCLC microtumor growth [1]: no significant impact on tumor growth remission

**Q.** For `Nc1nc2[nH]cc(CCc3ccc(C(=O)N[C@@H](CCC(=O)O)C(=O)O)cc3)c2c(=O)[nH]1` [Pemetrexed], which “effect on pancreatic microtumor growth” value [3] is on record?
**A.** did not affect tumor growth; also recorded: not active

**Q.** What about the “effect on NSCLC microtumor growth” value [1] of the same compound?
**A.** tumor remission

**Q.** Which “Time to MR (TMR)” value ([3]; Gemcitabine 0.1 ug/ml) does the source give for `Nc1ccn([C@@H]2O[C@H](CO)[C@@H](O)C2(F)F)c(=O)n1` [Gemcitabine] here?
**A.** 10 days

**Q.** What about the “Time until relapse (TR)” value ([3]; Gemcitabine 0.1 ug/ml) of the same compound?
**A.** 10 days

**Q.** What about the Response ([3]; Gemcitabine 0.1 ug/ml) of the same compound?
**A.** SR (+/−20% increase/decrease in size)

**Q.** What about the ΔT14/ΔC14 ([3]; Gemcitabine 0.1 ug/ml, treatment effect to untreated control) of the same compound?
**A.** −0.25

**Q.** And the “Time to MR (TMR)” value ([3]; Gemcitabine 0.5 ug/ml)?
**A.** 10 days

**Q.** And the “Time until relapse (TR)” value ([3]; Gemcitabine 0.5 ug/ml)?
**A.** 10 days

**Q.** And the Response ([3]; Gemcitabine 0.5 ug/ml)?
**A.** SR (+/−20% increase/decrease in size)

**Q.** What about the ΔT14/ΔC14 ([3]; Gemcitabine 0.5 ug/ml) of the same compound?
**A.** −0.23

**Q.** What about the “effect on pancreatic microtumor growth” value [3] of the same compound?
**A.** unfolds its effect quickly

**Q.** What about the “day after which treated microtumors relapsed” value ([3]; dosed for 8h with a 48h gap (FIG. 5A)) of the same compound?
**A.** > 10 days

**Q.** What about the median cmax [4] of the same compound?
**A.** (median cmax = 20 ug/ml)

**Q.** What about the “Time to MR (TMR)” value ([1]; Gemcitabine 0.1 ug/ml) of the same compound?
**A.** 14 days

**Q.** And the Response ([1]; Gemcitabine 0.1 ug/ml)?
**A.** RE (≥20% decrease in microtumor size)

**Q.** What about the ΔT14/ΔC14 ([1]; Gemcitabine 0.1 ug/ml, day 14) of the same compound?
**A.** −2.72

**Q.** What about the “Time to MR (TMR)” value ([1]; Gemcitabine 0.3 ug/ml) of the same compound?
**A.** 14 days

**Q.** What about the Response ([1]; Gemcitabine 0.3 ug/ml) of the same compound?
**A.** RE (≥20% decrease in microtumor size)

**Q.** What about the ΔT14/ΔC14 ([1]; Gemcitabine 0.3 ug/ml, day 14) of the same compound?
**A.** −4.04

**Q.** And the “Time to MR (TMR)” value ([1]; Gemcitabine 0.5 ug/ml)?
**A.** 14 days

**Q.** And the Response ([1]; Gemcitabine 0.5 ug/ml)?
**A.** RE (≥20% decrease in microtumor size)

**Q.** And the ΔT14/ΔC14 ([1]; Gemcitabine 0.5 ug/ml, day 14)?
**A.** −3.87

**Q.** With `C#Cc1cccc(Nc2ncnc3cc(OCCOC)c(OCCOC)cc23)c1` [Erlotinib] as the compound, how does the “impact on tumor growth, single doses” value [5] read?
**A.** hardly an impact on tumor growth

**Q.** What about the “effect on NSCLC microtumor growth” value [1] of the same compound?
**A.** reduced growth

**Q.** And the “time after which growth relapses” value ([1]; dosed 2× for 8h with a gap of 48h (FIG. 11))?
**A.** > 7 days
